{"source": "patent US20220024963A1", "about": "“SALT OF TRIPHOSPHATE PHOSPHORAMIDATES OF NUCLEOTIDES AS ANTICANCER COMPOUNDS” (priority 2019, published 2022)", "key": {"RPMI-8226": {"tested_on": "RPMI-8226", "assay": "In vitro viability assay, CellTiterGlo, 72 h (Example A)", "assay_type": "cell-based, Human", "conditions": "RPMI-8226, CellTiterGlo", "description": "(§1) A compound of the invention was assayed for cytotoxic activity in an array of different solid tumours and haematological malignancies using the following assay.\n(§2) In vitro viability assay was performed to assess the effects of compounds on cell viability in selected cell lines over 72 h using the CellTiterGlo (CTG, Promega-G7573) assay. The tests were performed in duplicates with treatment of compounds at 9 points, 3.16 folds titration in 96 well plates over ˜72 h. The compound starting concentrations were 198 μM. Cell viability assay using CellTiterGlo in 96-well plate were performed. Compound treatment 72 h, standard growth conditions, duplicates. Compounds were dissolved to 40 mM with thawed […]. Compounds were serially diluted at 3.16 fold in thawed DMSO and warmed to 37° C. before being dissolved in media (2 μL+200 μL). After compounds were dissolved in media, media containing compounds were warmed to 37° C. in incubator and then compounds in media were added to cell plates (50 μL+50 μL) in duplicates. The compounds' final concentrations were from 198 μM to 19.8 nM. All compound solubilities were checked and recorded again, then the plates were transferred to CO2 tissue culture incubator immediately and incubated for 3 days. DMSO final concentration is 0.5%."}, "RL (lymphoma)": {"tested_on": "RL (lymphoma)", "assay": "Cytotoxicity assay (AlamarBlue - resazurin dye), 72 h (Example B)", "assay_type": "cell-based", "conditions": "72 h treatment", "from_the_text": "(§3) The efficacy (evaluated by IC50) of clofarabine and 3 different compounds representing different class of clofarabine ProTides (monophosphate, diphosphate and triphosphate molecules) was compared.\n(§4) The tested cancer cell lines were acute lymphoblastic leukaemia (ALL), acute myeloid leukaemia (AML) and lymphoma: CCRF-CEM (ALL), HL60 (AML), KG1 (AML), OCI-AML3 (AML) and RL (lymphoma), grown in suspension, in RPMI-1640 media, supplemented with 10% FBS serum and 1% pen strep, except for KG1 cell line for which FBS was 20%.\n(§5) For all experiments, cells were plated on a 96 well plate, at a density of 10,000 cells/well in 50 μL media. Dilutions from stock concentration to working solutions were prepared in media; at twice the required concentration and 50 μL was added per well (this achieving the final concentrations described in results below). Control untreated received 50 μL of plain media. After 66 h 10 μL of resazurin was added per well (dilution 1:10). Cells were then incubated with for up to 6 h. After 72 h treatment, cytotoxicity assay (AlamarBlue™−resazurin dye) was performed to determine cell survival. Plates were scanned with a BioHit800 plate reader and data were analysed with Excel and GraphPad Prism.\n(§6) A low IC50 indicates greater potency under these laboratory conditions."}, "KG1 (AML)": {"tested_on": "KG1 (AML)", "assay": "Cytotoxicity assay (AlamarBlue - resazurin dye), 72 h (Example B)", "assay_type": "cell-based", "conditions": "KG1, 72 h treatment", "from_the_text": "as §3, §4, §5, §6"}, "HL60 (AML)": {"tested_on": "HL60 (AML)", "assay": "Cytotoxicity assay (AlamarBlue - resazurin dye), 72 h (Example B)", "assay_type": "cell-based", "conditions": "Homo sapiens, HL-60, HL60, 72 h treatment", "from_the_text": "as §3, §4, §5, §6"}, "HL-60": {"tested_on": "HL-60", "assay": "In vitro viability assay, CellTiterGlo, 72 h (Example A)", "assay_type": "cell-based", "conditions": "HL-60, CellTiterGlo", "description": "as §1, §2"}, "HT29": {"tested_on": "HT29", "assay": "In vitro viability assay, CellTiterGlo, 72 h (Example A)", "assay_type": "cell-based", "description": "as §1, §2"}, "MCF-7": {"tested_on": "MCF-7", "assay": "In vitro viability assay, CellTiterGlo, 72 h (Example A)", "assay_type": "cell-based", "description": "as §1, §2"}, "HepG2": {"tested_on": "HepG2", "assay": "In vitro viability assay, CellTiterGlo, 72 h (Example A)", "assay_type": "cell-based", "description": "as §1, §2"}, "KG-1": {"tested_on": "KG-1", "assay": "In vitro viability assay, CellTiterGlo, 72 h (Example A)", "assay_type": "cell-based", "conditions": "KG-1, CellTiterGlo", "description": "as §1, §2"}, "RL": {"tested_on": "RL", "assay": "In vitro viability assay, CellTiterGlo, 72 h (Example A)", "assay_type": "cell-based", "description": "as §1, §2"}, "K562": {"tested_on": "K562", "assay": "In vitro viability assay, CellTiterGlo, 72 h (Example A)", "assay_type": "cell-based", "description": "as §1, §2"}, "CCRF-CEM": {"tested_on": "CCRF-CEM", "assay": "In vitro viability assay, CellTiterGlo, 72 h (Example A)", "assay_type": "cell-based", "description": "as §1, §2"}, "MOLT-4": {"tested_on": "MOLT-4", "assay": "In vitro viability assay, CellTiterGlo, 72 h (Example A)", "assay_type": "cell-based", "conditions": "MOLT-4, CellTiterGlo", "description": "as §1, §2"}, "OCI-AML3 (AML)": {"tested_on": "OCI-AML3 (AML)", "assay": "cells", "assay_type": "cell-based", "from_the_text": "as §3, §4, §5, §6\n(§7) Clofarabine, A, 5a, 5b, 5c, 5d, 5e and 5f were tested against CCRF-CEM and OCI-AML3 cells. Data is represented as the percentage ofcell survival for each ofthe different concentrations to which cells were exposed, rather than calculating a formal IC50 from only two or three datapoints."}, "CCRF-CEM (ALL)": {"tested_on": "CCRF-CEM (ALL)", "assay": "cells", "assay_type": "cell-based", "from_the_text": "as §3, §4, §5, §6, §7"}, "[1]": {"conditions": "Homo sapiens, read-out: Ab EC50"}}, "note": "Counter-ions that a name gives are not always drawn.", "data": [{"smiles": "C[C@H](NP(=O)(Oc1ccccc1)OP(=O)(O)OP(=O)(O)OC[C@H]1O[C@@H](n2cnc3c(N)nc(Cl)nc32)C(F)[C@H]1O)C(=O)OCc1ccccc1", "note": "(stereo partly drawn) [Compound 5a, (2S)-Benzyl 2-(((((((((2R,3R,4S,5R)-5-(6-amino-2-chloro-9H-purin-9-yl)-4-fluoro-3-hydroxytetrahydrofuran-2-yl)methoxy)(hydroxy)phosphoryl)oxy) (hydroxy)phosphoryl)oxy)(phenoxy)phosphoryl)amino)propanoate, di-triethylammonium salt]", "values": [{"measurement": "EC50", "setting": "RPMI-8226; [1]", "value": 20200, "unit": "nM"}, {"measurement": "Top Inhibit", "setting": "RPMI-8226", "value": 94, "unit": "%"}, {"measurement": "IC50", "setting": "RL (lymphoma)", "value": 117, "unit": "nM"}, {"measurement": "IC50", "setting": "KG1 (AML)", "value": 349, "unit": "nM"}, {"measurement": "IC50", "setting": "HL60 (AML)", "value": 56.2, "unit": "nM"}, {"measurement": "Top Inhibit", "setting": "HL-60", "value": 97, "unit": "%"}, {"measurement": "EC50", "setting": "HL-60; [1]", "value": 330, "unit": "nM"}, {"measurement": "Top Inhibit", "setting": "HT29", "value": 64, "unit": "%"}, {"measurement": "EC50", "setting": "HT29; Homo sapiens, HT-29, read-out: Ab EC50", "value": 500, "unit": "nM"}, {"measurement": "EC50", "setting": "MCF-7; Homo sapiens, MCF7, MCF-7, CellTiterGlo, read-out: Ab EC50", "value": "> 198000", "unit": "nM"}, {"measurement": "Top Inhibit", "setting": "MCF-7; MCF-7, CellTiterGlo", "value": 40, "unit": "%"}, {"measurement": "Top Inhibit", "setting": "HepG2", "value": 51, "unit": "%"}, {"measurement": "EC50", "setting": "HepG2; [1]", "value": 620, "unit": "nM"}, {"measurement": "EC50", "setting": "KG-1; [1]", "value": 310, "unit": "nM"}, {"measurement": "Top Inhibit", "setting": "KG-1", "value": 92, "unit": "%"}, {"measurement": "Top Inhibit", "setting": "RL", "value": 57, "unit": "%"}, {"measurement": "EC50", "setting": "RL; [1]", "value": 44600, "unit": "nM"}, {"measurement": "Top Inhibit", "setting": "K562", "value": 33, "unit": "%"}, {"measurement": "EC50", "setting": "K562; [1]", "value": "> 198000", "unit": "nM"}, {"measurement": "Top Inhibit", "setting": "CCRF-CEM", "value": 99, "unit": "%"}, {"measurement": "EC50", "setting": "CCRF-CEM; [1]", "value": "< 20", "unit": "nM"}, {"measurement": "EC50", "setting": "MOLT-4; [1]", "value": 40, "unit": "nM"}, {"measurement": "Top Inhibit", "setting": "MOLT-4", "value": 86, "unit": "%"}, {"measurement": "IC50", "setting": "OCI-AML3 (AML); Homo sapiens, OCI-AML-3, OCI-AML3, 72 h treatment, AlamarBlue", "value": 114, "unit": "nM"}, {"measurement": "Survival @ 50 nM", "setting": "OCI-AML3 (AML); OCI-AML3, 50 nM, percentage of cell survival, 72 h", "value": 86, "unit": "%"}, {"measurement": "Survival @ 125 nM", "setting": "OCI-AML3 (AML); OCI-AML3, 125 nM, percentage of cell survival, 72 h", "value": 51, "unit": "%"}, {"measurement": "Survival @ 25 nM", "setting": "CCRF-CEM (ALL); 25 nM, percentage of cell survival, 72 h", "value": 81, "unit": "%"}, {"measurement": "Survival @ 50 nM", "setting": "CCRF-CEM (ALL); 50 nM, percentage of cell survival, 72 h", "value": 100, "unit": "%"}, {"measurement": "Survival @ 125 nM", "setting": "CCRF-CEM (ALL); 125 nM, percentage of cell survival, 72 h", "value": 13, "unit": "%"}, {"measurement": "IC50", "setting": "CCRF-CEM (ALL); Homo sapiens, 72 h treatment, AlamarBlue", "value": 79, "unit": "nM"}]}]}
